Test results published in patent publication US11318131B2, “Nanoliposomal irinotecan for use in treating small cell lung cancer” (Ipsen Biopharm Ltd., priority 2015, dated 2022).
Like-named read-outs stand apart in the source and are kept apart here.

Tests used:
[1] = test system: NCI-H1048 xenograft; assay: Second line SCLC model: NCI-H1048 after carboplatin plus etoposide; assay type: in vivo; conditions: weekly: nal-IRI 16 mg/kg IV; irinotecan 33 mg/kg IV; topotecan 1.66 mg/kg/wk IP days 1 and 2
Method: As described below, mice bearing NCI-H1048 SCLC tumors were treated with a carboplatin plus etoposide, a first line regimen in SCLC. Once the tumors escaped growth control by carboplatin plus etoposide, mice were randomized to either continue treatment with carboplatin plus etoposide or switch to second line treatment with either irinotecan liposome injection, non-liposomal irinotecan or topotecan.
NOD/SCID mice with NCIH1048 SCLC xenograft tumors were treated weekly with the combination of 30 mg/kg carboplatin plus 25 mg/kg etoposide. […] . […] . […] . FIG. 21B is a survival graph for mice on each of the treatments.

[2] = test system: NCI-H1048 xenograft; assay: NCI-H1048 SCLC xenograft, treatment naive; conditions: for anti-tumor activity / response (in words): NCI-H1048, irinotecan 33 mg/kg IV, weekly
[3] = test system: small cell lung cancer (SCLC); conditions: second line SCLC, cited from earlier work; for grade 3 or greater diarrhea / grade 3 or greater neutropenia rates / overall response rates / overall survival (OS) / progression free survival (PFS): topotecan 1.5 mg/m^2 days 1-5 every 3 weeks, non-liposomal irinotecan 300 mg/m^2 every 3 weeks; for overall survival: certain regimens
[4] = test system: DMS-114 xenograft; assay: DMS-114 xenograft, topotecan-treated tumors; conditions: nal-IRI 16 mg/kg; irinotecan 33 mg/kg
[5] = test system: DMS-114 xenograft; assay: DMS-114 SCLC xenograft, NOD/SCID mice
[6] = test system: DMS53 SCLC cell line; assay: SN-38 in vitro growth and viability assay; assay type: cell-based
[7] = test system: NCI-H1048 SCLC cell line; assay: Cell growth inhibition kinetics, IncuCyte ZOOM System; assay type: cell-based; conditions: NCI-H1048, time-course of 88 hours
[8] = test system: DMS-114 SCLC cell line; assay: as above; assay type: cell-based; conditions: DMS-114, time-course of 88 hours
[9] = test system: NCI-H1048 SCLC cell line
Method: (§1) Irinotecan liposome injection was administered intravenously to mice bearing xenograft tumors. At 24 hours post administration, mice were sacrificed and tumors were harvested. Irinotecan and SN-38 in tumors were measured by high performance liquid chromatography (HPLC). Data were normalized to injected dose per tumor weight. […] Cell growth inhibition kinetics of SN-38 in the cell lines was determined using IncuCyte® ZOOM System.

[10] = test system: DMS114 SCLC cell line
Method: as §1

[11] = test system: SW1271 SCLC cell line; assay: SN-38 in vitro growth and viability assay; assay type: cell-based
[12] = test system: DMS-53 xenograft; assay: DMS-53 SCLC xenograft; conditions: nal-IRI 16 mg/kg IV, topotecan 0.83 mg/kg/wk days 1-2, weekly
[13] = nal-IRI 16 mg/kg IV, topotecan 0.83 mg/kg/wk days 1-2 IP

SMILES: CCc1c2c(nc3ccc(OC(=O)N4CCC(N5CCCCC5)CC4)cc13)-c1cc3c(c(=O)n1C2)COC(=O)[C@]3(O)CC [non-liposomal irinotecan, (S)-4,11-diethyl-3,4,12,14-tetrahydro-4-hydroxy-3,14-dioxo1H-pyrano[3′,4′:6,7]-indolizino[1,2-b]quinolin-9-yl-[1,4′bipiperidine]-1′-carboxylate]
- anti-tumor activity in carboplatin plus etoposide-treated SCLC tumors (in words) [1]: active but after 3rd cycle some tumors are trending regrowth
- anti-tumor activity / response (in words) [2, 13]: progress after initially responding to treatment
- grade 3 or greater diarrhea [3]: 0-13%
- grade 3 or greater neutropenia rates [3]: 21-23%
- overall response rates [3]: 0-33%
- overall survival (OS) [3]: 4.6-6.9 months
- progression free survival (PFS) [3]: 1.7-2.8 months
- responsiveness of topotecan-treated DMS114 tumors [4]: not
- anti-tumor activity / response (in words) ([5]; DMS-114, nal-IRI 16 mg/kg IV, irinotecan 33 mg/kg IV, topotecan 0.83 mg/kg/wk days 1-2 IP, weekly): became less responsive after 2-3 cycles

SMILES: CCc1c2c(nc3ccc(O)cc13)-c1cc3c(c(=O)n1C2)COC(=O)[C@]3(O)CC [SN-38]
- decrease in cell viability [6]: > 90%
- concentration with cell killing after prolonged incubation times [7]: ≥ 10 nM
- concentration with effective cell growth inhibition [7]: 1 to 10 nM
- concentration with cell killing after prolonged incubation times [8]: ≥ 10 nM
- concentration with effective cell growth inhibition [8]: 1 to 10 nM
- decrease in cell viability [9]: > 90%
- decrease in cell viability [10]: > 90%
- decrease in cell viability [11]: > 90%

SMILES: CC[C@@]1(O)C(=O)OCc2c1cc1n(c2=O)Cc2cc3c(CN(C)C)c(O)ccc3nc2-1 [topotecan]
- anti-tumor activity in carboplatin plus etoposide-treated SCLC tumors (in words) [1]: seems to be active after 1-2 cycles but progress quickly after 3rd dose
- mice with complete tumor regressions after 4 cycles of treatment ([2]; Example 11, nal-IRI 16 mg/kg salt q1w, topotecan 0.83 mg/kg/week Day 1-2): 0 out of 7
- mice with complete regressions of their tumors ([2]; Example 15, n=10, nal-IRI 16 mg/kg IV, topotecan 0.83 mg/kg/wk days 1-2 IP): 0 out of 10
- anti-tumor activity / response (in words) [2, 13]: limited tumor growth control
- overall survival ([3]; all patients): 7.8 months
- overall survival ([3]; refractory patients): 5.7 months
- overall survival ([3]; sensitive patients): 9.9 months
- grade 3 or greater diarrhea [3]: less than 5%
- grade 3 or greater neutropenia rates [3]: 28-88%
- overall response rates [3]: 7-24%
- overall survival (OS) [3]: 5.0-8.9 months
- progression free survival (PFS) [3]: 3.1-3.7 months
- anti-tumor activity / response (in words) [12]: limited tumor growth control
- anti-tumor activity of bolus (day 1) compared to fractionated (days 1 & 2) dosing ([5]; same dose intensity, FIG. 15 (DMS-114, NCI-H1048)): less anti-tumor activity
